The text below walks through data of patent US8404708B2, “Dual NK1/NK3 receptor antagonists” (Hoffmann-La Roche Inc., priority 2004, dated 2013).

In one experiment the target is human NK1 receptor (Homo sapiens, UniProt P25103). As to the kind of experiment: NK1 receptor binding, [3H]substance P displacement, CHO cell membranes. The following applies: first value of the cell NK1/NK3; read-out: pKi NK1 (converted).
The target of experiment [1] is T1, Recombinant human NK3 (hNK3) receptor (Homo sapiens, UniProt P29371).
T1 construct: expressed in transfected cells
T1 sequence (P29371 1-465): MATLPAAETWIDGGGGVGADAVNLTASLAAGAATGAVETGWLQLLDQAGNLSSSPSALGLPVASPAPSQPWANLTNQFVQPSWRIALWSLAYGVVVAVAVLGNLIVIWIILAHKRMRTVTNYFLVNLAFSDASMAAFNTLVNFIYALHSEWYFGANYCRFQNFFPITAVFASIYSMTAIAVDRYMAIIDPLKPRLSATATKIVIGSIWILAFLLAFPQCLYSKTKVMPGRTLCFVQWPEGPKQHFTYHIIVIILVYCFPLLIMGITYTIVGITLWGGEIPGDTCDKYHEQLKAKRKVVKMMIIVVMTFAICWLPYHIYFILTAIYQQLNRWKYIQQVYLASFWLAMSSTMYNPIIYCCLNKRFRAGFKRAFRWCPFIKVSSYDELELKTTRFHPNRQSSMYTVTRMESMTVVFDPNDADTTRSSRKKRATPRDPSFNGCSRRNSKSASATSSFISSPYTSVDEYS
As to the kind of experiment: NK3 receptor binding, [3H]SR142801 displacement, membrane preparations. Particulars: second value of the cell NK1/NK3; read-out: pKi NK3 (converted). In a few lines:
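Buffer: Tris-HCl 50 mM pH 7.4, BSA 0.1%, MnCl2 4 mM, phosphoramidon 1 μM. ~2.5 μg membrane/well, 90 min RT. NSB with SB222200 (10 μM). Vacuum filtration over 0.3% PEI-treated GF/C, cold Tris/BSA washes, scintillation count; duplicates, ≥2 experiments.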

Sequence of human NK1 receptor (P25103 whole entry): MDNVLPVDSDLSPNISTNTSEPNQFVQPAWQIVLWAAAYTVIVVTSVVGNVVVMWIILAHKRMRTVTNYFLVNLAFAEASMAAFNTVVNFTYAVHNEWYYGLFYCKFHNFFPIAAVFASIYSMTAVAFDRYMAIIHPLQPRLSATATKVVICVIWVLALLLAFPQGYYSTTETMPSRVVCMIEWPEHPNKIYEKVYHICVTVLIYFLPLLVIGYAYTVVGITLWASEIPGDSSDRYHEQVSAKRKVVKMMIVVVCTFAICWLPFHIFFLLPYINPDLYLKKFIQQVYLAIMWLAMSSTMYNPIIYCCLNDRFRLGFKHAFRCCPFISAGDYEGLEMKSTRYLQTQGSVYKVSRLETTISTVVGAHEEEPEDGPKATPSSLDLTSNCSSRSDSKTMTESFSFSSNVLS

For the compound `CN(C(=O)C(C)(C)c1cc(C(F)(F)F)cc(C(F)(F)F)c1)c1cnc(N2C[C@@H](O)C[C@H]2CO)cc1-c1ccccc1C#N` [Example 245, (2S,4S)-2-(3,5-Bis-trifluoromethyl-phenyl)-N-[4-(2-cyano-phenyl)-6-(4-hydroxy-2-hydroxymethyl-pyrrolidin-1-yl)-pyridin-3-yl]-N-methyl-isobutyramide], the Ki on human NK1 receptor was 1.2 nM; in experiment [1] it was 1.1 nM.
In the same order, the values of `CN(C(=O)C(C)(C)c1cc(C(F)(F)F)cc(C(F)(F)F)c1)c1cnc(N2C[C@@H](O)C[C@H]2CO)cc1-c1ccccc1Br` [Example 246, (2S,4S)-2-(3,5-Bis-trifluoromethyl-phenyl)-N-[4-(2-bromo-phenyl)-6-(4-hydroxy-2-hydroxymethyl-pyrrolidin-1-yl)-pyridin-3-yl]-N-methyl-isobutyramide] are 1.91 nM and 1.48 nM.
In the same order, the values of `CN(C(=O)C(C)(C)c1cc(C(F)(F)F)cc(C(F)(F)F)c1)c1cnc(N2C[C@@H](O)C[C@H]2CO)cc1-c1ccccc1` [Example 247, (2S,4S)-2-(3,5-Bis-trifluoromethyl-phenyl)-N-[6-(4-hydroxy-2-hydroxymethyl-pyrrolidin-1-yl)-4-phenyl-pyridin-3-yl]-N-methyl-isobutyramide] are 1.51 nM and 15.8 nM.
The like results for `Cc1cc(-c2cc(N3C[C@@H](O)C[C@H]3CO)ncc2N(C)C(=O)C(C)(C)c2cc(C(F)(F)F)cc(C(F)(F)F)c2)ccc1F` [Example 248, (2S,4S)-2-(3,5-Bis-trifluoromethyl-phenyl)-N-[4-(4-fluoro-3-methyl-phenyl)-6-(4-hydroxy-2-hydroxymethyl-pyrrolidin-1-yl)-pyridin-3-yl]-N-methyl-isobutyramide] were, in that order, 2.19 nM and 27.5 nM.
Turning to `Cc1c(F)cccc1-c1cc(N2C[C@@H](O)C[C@H]2CO)ncc1N(C)C(=O)C(C)(C)c1cc(C(F)(F)F)cc(C(F)(F)F)c1` [Example 249, (2S,4S)-2-(3,5-Bis-trifluoromethyl-phenyl)-N-[4-(3-fluoro-2-methyl-phenyl)-6-(4-hydroxy-2-hydroxymethyl-pyrrolidin-1-yl)-pyridin-3-yl]-N-methyl-isobutyramide], the Ki at human NK1 receptor is 2 nM; in experiment [1], 1.02 nM.
The like results for `Cc1ccc(F)cc1-c1cc(N2C[C@@H](O)C[C@H]2CO)ncc1N(C)C(=O)C(C)(C)c1cc(C(F)(F)F)cc(C(F)(F)F)c1` [Example 250, (2S,4S)-2-(3,5-Bis-trifluoromethyl-phenyl)-N-[4-(5-fluoro-2-methyl-phenyl)-6-(4-hydroxy-2-hydroxymethyl-pyrrolidin-1-yl)-pyridin-3-yl]-N-methyl-isobutyramide] were, in that order, 1.95 nM and 2 nM.
In the same order, the values of `CN(C(=O)C(C)(C)c1cc(C(F)(F)F)cc(C(F)(F)F)c1)c1cnc(N2C[C@@H](O)C[C@H]2CO)cc1-c1cccc(F)c1` [Example 251, (2S,4S)-2-(3,5-Bis-trifluoromethyl-phenyl)-N-[4-(3-fluoro-phenyl)-6-(4-hydroxy-2-hydroxymethyl-pyrrolidin-1-yl)-pyridin-3-yl]-N-methyl-isobutyramide] are 1.32 nM and 8.91 nM.
In the same order, the values of `CN(C(=O)C(C)(C)c1cc(C(F)(F)F)cc(C(F)(F)F)c1)c1cnc(N2C[C@@H](O)C[C@H]2CO)cc1-c1ccc(Cl)c(Cl)c1` [Example 252, (2S,4S)-2-(3,5-Bis-trifluoromethyl-phenyl)-N-[4-(3,4-dichloro-phenyl)-6-(4-hydroxy-2-hydroxymethyl-pyrrolidin-1-yl)-pyridin-3-yl]-N-methyl-isobutyramide] are 1.66 nM and 6.17 nM.
`CN(C(=O)C(C)(C)c1cc(C(F)(F)F)cc(C(F)(F)F)c1)c1cnc(N2C[C@@H](O)C[C@H]2CO)cc1-c1cccc(Cl)c1Cl` [Example 253, (2S,4S)-2-(3,5-Bis-trifluoromethyl-phenyl)-N-[4-(2,3-dichloro-phenyl)-6-(4-hydroxy-2-hydroxymethyl-pyrrolidin-1-yl)-pyridin-3-yl]-N-methyl-isobutyramide]: the figures for the Ki (on human NK1 receptor; in experiment [1]) were 2.88 nM and 3.16 nM, respectively.
The like results for `CN(C(=O)C(C)(C)c1cc(C(F)(F)F)cc(C(F)(F)F)c1)c1cnc(N2C[C@@H](O)C[C@H]2CO)cc1-c1cccnc1Cl` [Example 254, (2S,4S)-2-(3,5-Bis-trifluoromethyl-phenyl)-N-[2-chloro-6′-(4-hydroxy-2-hydroxymethyl-pyrrolidin-1-yl)-[3,4′]bipyridinyl-3′-yl]-N-methyl-isobutyramide] were, in that order, 0.977 nM and 3.09 nM.
The like results for `Cc1ncccc1-c1cc(N2C[C@@H](O)C[C@H]2CO)ncc1N(C)C(=O)C(C)(C)c1cc(C(F)(F)F)cc(C(F)(F)F)c1` [Example 255, (2S,4S)-2-(3,5-Bis-trifluoromethyl-phenyl)-N-[6′-(4-hydroxy-2-hydroxymethyl-pyrrolidin-1-yl)-2-methyl-[3,4′]bipyridinyl-3′-yl]-N-methyl-isobutyramide] were, in that order, 0.955 nM and 10.7 nM.
For the compound `CN(C(=O)C(C)(C)c1cc(C(F)(F)F)cc(C(F)(F)F)c1)c1cnc(N2C[C@@H](O)C[C@H]2CO)cc1-c1ncccc1Cl` [Example 256, (2S,4S)-2-(3,5-Bis-trifluoromethyl-phenyl)-N-[3-chloro-6′-(4-hydroxy-2-hydroxymethyl-pyrrolidin-1-yl)-[2,4′]bipyridinyl-3′-yl]-N-methyl-isobutyramide], the Ki was 2.4 nM on human NK1 receptor and 20 nM in experiment [1].
In the same order, the values of `Cc1cc(F)ccc1-c1cc(N2C[C@H](O)C[C@@H]2CO)ncc1N(C)C(=O)C(C)(C)c1cc(C(F)(F)F)cc(C(F)(F)F)c1` [Example 258, (2R,4R)-2-(3,5-Bis-trifluoromethyl-phenyl)-N-[4-(4-fluoro-2-methyl-phenyl)-6-(4-hydroxy-2-hydroxymethyl-pyrrolidin-1-yl)-pyridin-3-yl]-N-methyl-isobutyramide] are 2 nM and 10 nM.
Regarding `Cc1cc(F)ccc1-c1cc(N2C[C@@H](O)C[C@@H]2CO)ncc1N(C)C(=O)C(C)(C)c1cc(C(F)(F)F)cc(C(F)(F)F)c1` [Example 259, (2R,4S)-2-(3,5-Bis-trifluoromethyl-phenyl)-N-[4-(4-fluoro-2-methyl-phenyl)-6-(4-hydroxy-2-hydroxymethyl-pyrrolidin-1-yl)-pyridin-3-yl]-N-methyl-isobutyramide], the Ki at human NK1 receptor was 1.66 nM; in experiment [1], 15.1 nM.
In the same order, the values of `Cc1ccccc1-c1cc(N2C[C@@H](O)C[C@@H]2CO)ncc1N(C)C(=O)C(C)(C)c1cc(C(F)(F)F)cc(C(F)(F)F)c1` [Example 260, (2R,4S)-2-(3,5-Bis-trifluoromethyl-phenyl)-N-[6-(4-hydroxy-2-hydroxymethyl-pyrrolidin-1-yl)-4-o-tolyl-pyridin-3-yl]-N-methyl-isobutyramide] are 1.41 nM and 17.8 nM.
In the same order, the values of `Cc1ccccc1-c1cc(N2CC[C@H](O)[C@H]2CO)ncc1N(C)C(=O)C(C)(C)c1cc(C(F)(F)F)cc(C(F)(F)F)c1` [Example 261, (2R,3S)-2-(3,5-Bis-trifluoromethyl-phenyl)-N-[6-(3-hydroxy-2-hydroxymethyl-pyrrolidin-1-yl)-4-o-tolyl-pyridin-3-yl]-N-methyl-isobutyramide] are 1.29 nM and 0.912 nM.
The like results for `CN(C(=O)C(C)(C)c1cc(C(F)(F)F)cc(C(F)(F)F)c1)c1cnc(N2CC[C@H](O)[C@H]2CO)cc1-c1ccccc1C(F)(F)F` [Example 262, (2R,3S)-2-(3,5-Bis-trifluoromethyl-phenyl)-N-[6-(3-hydroxy-2-hydroxymethyl-pyrrolidin-1-yl)-4-(2-trifluoromethyl-phenyl)-pyridin-3-yl]-N-methyl-isobutyramide] were, in that order, 7.94 nM and 9.77 nM.
Turning to `COc1ccccc1-c1cc(N2CC[C@H](O)[C@H]2CO)ncc1N(C)C(=O)C(C)(C)c1cc(C(F)(F)F)cc(C(F)(F)F)c1` [Example 263, (2R,3S)-2-(3,5-Bis-trifluoromethyl-phenyl)-N-[6-(3-hydroxy-2-hydroxymethyl-pyrrolidin-1-yl)-4-(2-methoxy-phenyl)-pyridin-3-yl]-N-methyl-isobutyramide], the Ki at human NK1 receptor was 1.02 nM; in experiment [1] it was 1.35 nM.
In the same order, the values of `CN(C(=O)C(C)(C)c1cc(C(F)(F)F)cc(C(F)(F)F)c1)c1cnc(N2CC[C@H](O)[C@H]2CO)cc1-c1ccccc1F` [Example 264, (2R,3S)-2-(3,5-Bis-trifluoromethyl-phenyl)-N-[4-(2-fluoro-phenyl)-6-(3-hydroxy-2-hydroxymethyl-pyrrolidin-1-yl)-pyridin-3-yl]-N-methyl-isobutyramide] are 1.48 nM and 2.14 nM.
`CN(C(=O)C(C)(C)c1cc(C(F)(F)F)cc(C(F)(F)F)c1)c1cnc(N2CC[C@H](O)[C@H]2CO)cc1-c1ccccc1` [Example 265, (2R,3S)-2-(3,5-Bis-trifluoromethyl-phenyl)-N-[6-(3-hydroxy-2-hydroxymethyl-pyrrolidin-1-yl)-4-phenyl-pyridin-3-yl]-N-methyl-isobutyramide]: the Ki at human NK1 receptor was 1.45 nM; in experiment [1], 4.9 nM.
